Data on three compounds can be found in paper PMC11595589, “A Pharmacokinetic and Bioavailability Study of Ecklonia cava Phlorotannins Following Intravenous and Oral Administration in Sprague–Dawley Rats” (Marine Drugs, 2024).

The structures appear in SMILES notation. Entries after “also recorded” stand apart in the source; their conditions may differ. Where two headings read alike, the source gives them in different places.

The data set can be described thus: Single-dose pharmacokinetics and bioavailability after oral gavage administration of EK-ECP. Conditions: for Tlast / Tmax: median (minimum-maximum); for fold increase in AUCTlast for a 1:10-fold increase in dose / fold increase in Cmax for a 1:10-fold increase in dose: PO 100 to 1000 mg/kg EK-ECP; for half-life / AUC(0-t) / bioavailability / Cmax / AUC(0-inf) / MRT last / Vd/F / Tmax: male, Sprague-Dawley, rat; for half-life / AUC(0-t): po; for bioavailability: 100 and 1000 mg/kg oral dose of EK-ECP versus IV 10 mg/kg, dose-corrected, read-out: Bioavailability following oral gavage administration; for Vd/F: read-out: Vz/F. The format is in vivo, male Sprague–Dawley rats. Here is the method: EK-ECP was administered to male Sprague–Dawley rats by either IV bolus (Group 1, 10 mg/kg) or oral gavage (Groups 2, 3 or 4, at 10, 100 or 1000 mg/kg, respectively) administration. Blood collection intervals were pre dose (0), and 0.25, 0.5, 1, 2, 4, 6, 8, 12, 24 and 36 h post dose. Plasma samples were analyzed for concentrations of 8,8′-bieckol, dieckol, and PFF-A; all pre-dose sample results were less than the lower limit of quantitation (LLOQ < 1 ng/mL). The time profiles of the plasma concentrations of 8,8′-bieckol, dieckol, and PFF-A in individual animals are illustrated in Figure 4. The mean pharmacokinetic parameters and corresponding coefficient of variation (CV) following IV administration of 10 mg/kg EK-ECP to male rats are illustrated in Table 1. Those following oral administrations of 10, 100 and 1000 mg/kg EK-ECP to male rats are illustrated in Table 2.
Total of 20 male CD® [Crl:CD®(SD)] rats (approximately 11.5 weeks of age) obtained from Charles River Laboratories (Portage, MI, USA) were used in our study. These included five rats with both jugular and femoral vein cannulations, and 15 rats with jugular vein cannulations. Of the 20 animals received, 16 male rats were placed in the study, comprising four rats with both jugular and femoral vein cannulations, and 12 rats with jugular vein cannulations. The rats were housed in the Mattawan facility of MPI Research Inc (currently Charles River Laboratories, Mattawan, MI, USA). Animal welfare for this study was in compliance with the U.S. Department of Agriculture’s (USDA) Animal Welfare Act (9 CFR Parts 1, 2 and 3). This facility maintained an animal welfare assurance statement with the National Institutes of Health Office of Laboratory Animal Welfare. All procedures were approved before the study by the institutional animal care utilization committee. Animals were individually housed and fed a basal diet of Lab Diet Certified Rodent Diet #5002, PMI Nutrition International, Inc. Food and water was available ad libitum except during fasting periods, when food was withheld, and during any required restraint periods, when both food and water were withheld. Animal rooms were maintained at (20 ± 2) °C and (50 ± 20)% relative humidity with a 12 h light/dark cycle throughout the study.
For intravenous administration, EK-ECP was dissolved in 70/25/5 (v/v) phosphate-buffered saline (PBS)/propylene glycol/ethanol (pH 5.1 final concentration of 2 mg/mL) and stabilized at room temperature for 24 h. For oral administration, after an amount of EK-ECP appropriate to the final targeted formulation concentrations was weighed and placed in a bottle, a small amount of the vehicle (water for injection) was added and mixed using a vortex mixer and heated to between 60 to 70 °C until homogeneously suspended. Additional amounts of the vehicle were gradually added to yield the targeted EK-ECP concentrations (1, 10, and 100 mg/mL). Dosing occurred within 4 h after preparation completion. The individual constituent doses of dieckol, 8,8′-bieckol, and PFF-A in each dosing formulation were analyzed by RP-HPLC followed by interpolation of the corresponding area% to the calibration curve prepared with known concentrations of isolated standards. The animals were fasted for a minimum of 4 h prior to dosing and through the first 4 h of blood sample collection. Each animal in Group 1 received a single intravenous (IV) dose of the 10 mg/kg EK-ECP. The intravenous doses were administered as a slow bolus injection over 5 min through the femoral vein cannula. The cannula was flushed with approximately 0.3 mL of sterile 0.9% sodium chloride for injection, USP, immediately following dosing. Each animal in Groups 2, 3 and 4 received a single oral (PO) gavage dose of the appropriate test article formulation, as outlined Table 3. Oral gavage dosing formulations were continuously stirred throughout dosing. […]

[1] abbreviates: PO 1000 mg/kg EK-ECP (Group 4), PFF-A in a single rat.
[2] abbreviates: in vivo, PO 100 mg/kg EK-ECP, mean (CV).
Where [3] appears, read: in vivo, PO 1000 mg/kg EK-ECP, mean (CV).
[4] abbreviates: plasma, PO 1000 mg/kg EK-ECP (Group 4), mean (CV), PFF-A N = 1.
[5] abbreviates: plasma, PO 100 mg/kg EK-ECP, mean (CV).
[6] abbreviates: plasma, PO 1000 mg/kg EK-ECP, mean (CV).

Turning to `Oc1cc(O)cc(Oc2c(O)cc(O)c3c2Oc2c(cc(O)c(-c4c(O)cc5c(c4O)Oc4c(Oc6cc(O)cc(O)c6)c(O)cc(O)c4O5)c2O)O3)c1` [8,8′-bieckol], the “fold increase in AUCTlast for a 1:10-fold increase in dose” value is reported as approximately 84 fold and the “fold increase in Cmax for a 1:10-fold increase in dose” value is recorded as approximately 71 fold. Moreover, the “plasma concentrations quantifiable up to” value (PO 100 mg/kg EK-ECP (Group 3)) is 12 h. In addition, the Tlast (PO 100 mg/kg EK-ECP) is recorded as 8 (8–12) h. Further, the “plasma concentrations quantifiable up to” value under setting [1] was found to be 36 h. The “Effective T1/2” value (PO 1000 mg/kg EK-ECP, mean (CV), ln(2)·MRTlast, 1000 mg/kg) is 4.11 (16) h. Also, the Tlast (PO 1000 mg/kg EK-ECP) is 36 (36–36) h. Besides, the half-life (in vivo, 100 mg/kg, PO 100 mg/kg EK-ECP, mean (CV), ln(2)·MRTlast, read-out: Effective T1/2 (converted)) is 134 min. For the same compound, the AUC(0-t) (in vivo, 100 mg/kg, PO 100 mg/kg EK-ECP, mean (CV), read-out: AUC(0–24h)) was determined as 41.5 ng·h/mL. Moreover, the AUC(0-t) (in vivo, 100 mg/kg, PO 100 mg/kg EK-ECP, mean (CV), read-out: AUCTlast) was 37.7 ng·h/mL. Besides, for the setting “in vivo, 100 mg/kg, PO 100 mg/kg EK-ECP, mean (CV), read-out: T1/2 (terminal half-life) (converted)”, the half-life is 177 min. For the same compound, the half-life (in vivo, 1000 mg/kg, PO 1000 mg/kg EK-ECP, mean (CV), ln(2)·MRTlast, read-out: Effective T1/2 (converted)) is 265 min. The AUC(0-t) (in vivo, 1000 mg/kg, PO 1000 mg/kg EK-ECP, mean (CV), read-out: AUC(0–24h)) came to 3050 ng·h/mL. The AUC(0-t) (in vivo, 1000 mg/kg, PO 1000 mg/kg EK-ECP, mean (CV), read-out: AUCTlast) turned out to be 3170 ng·h/mL. Further, the half-life (in vivo, 1000 mg/kg, PO 1000 mg/kg EK-ECP, mean (CV), read-out: T1/2 (terminal half-life) (converted)) is 398 min. For the same compound, for the setting “in vivo”, the bioavailability was 0.069 to 0.5%. This compound also yielded a Cmax (in vivo, PO 100 mg/kg EK-ECP (Group 3), mean (CV)) of 11.2 ng/mL. Moreover, under setting [2], the area under the curve AUC(0-inf) came out at 44 ng·h/mL, the MRT last was 3.23 h and the Vd/F amounted to 1060 L/kg. Further, the Tmax (in vivo, PO 100 mg/kg EK-ECP) was in the range of 15 to 240 min. For the setting “in vivo, PO 1000 mg/kg EK-ECP (Group 4), mean (CV), PFF-A N = 1”, the Cmax is 795 ng/mL. Under setting [3], the AUC(0-inf) came to 3210 ng·h/mL, the MRT last is 5.93 h and the Vd/F came out at 342 L/kg. Besides, the time of peak concentration (Tmax) (in vivo, PO 1000 mg/kg EK-ECP) stood at 30 min.
On to `Oc1cc(O)cc(Oc2c(O)cc(O)c3c2Oc2c(O)cc4oc5c(Oc6cc(O)cc(O)c6)c(O)cc(O)c5c4c2O3)c1` [PFF-A, phlorofucofuroeckol-A], for which the plasma concentrations result (PO 100 mg/kg EK-ECP (Group 3), LLOQ 1 ng/mL, 100 mg/kg) is “below the lower limit of quantitation; also recorded: below the quantifiable limit”. In addition, the “plasma concentrations quantifiable up to” value under setting [1] came out at 1 h. The compound further showed a Cmax under setting [4] of 1.58 ng/mL. For the same compound, the Tmax (plasma, PO 1000 mg/kg EK-ECP) is 30 min.
On to `Oc1cc(O)cc(Oc2c(O)cc(O)c3c2Oc2c(O)cc(Oc4c(O)cc(Oc5c(O)cc(O)c6c5Oc5c(O)cc(O)cc5O6)cc4O)cc2O3)c1` [dieckol], for which the “fold increase in AUCTlast for a 1:10-fold increase in dose” value is recorded as approximately 49 fold and the “fold increase in Cmax for a 1:10-fold increase in dose” value is approximately 41 fold. For the setting “PO 100 mg/kg EK-ECP (Group 3)”, the “plasma concentrations quantifiable up to” value worked out at 8 h. For the same compound, the Tlast (PO 100 mg/kg EK-ECP) is recorded as 8 (6–8) h. Further, the “plasma concentrations quantifiable up to” value under setting [1] is on record as 36 h. In addition, the Tlast (PO 1000 mg/kg EK-ECP) was 36 (36–36) h. The half-life (plasma, 100 mg/kg, PO 100 mg/kg EK-ECP, mean (CV), ln(2)·MRTlast, read-out: Effective T1/2 (converted)) was 142 min. Also, the AUC(0-t) (plasma, 100 mg/kg, PO 100 mg/kg EK-ECP, mean (CV), read-out: AUC(0–24h)) is 27.2 ng·h/mL. The AUC(0-t) (plasma, 100 mg/kg, PO 100 mg/kg EK-ECP, mean (CV), read-out: AUCTlast) was 24.3 ng·h/mL. Besides, the half-life (plasma, 100 mg/kg, PO 100 mg/kg EK-ECP, mean (CV), read-out: T1/2 (terminal half-life) (converted)) is 166 min. The half-life (plasma, 1000 mg/kg, PO 1000 mg/kg EK-ECP, mean (CV), ln(2)·MRTlast, read-out: Effective T1/2 (converted)) is 319 min. In addition, the AUC(0-t) (plasma, 1000 mg/kg, PO 1000 mg/kg EK-ECP, mean (CV), read-out: AUC(0–24h)) turned out to be 1130 ng·h/mL. In addition, the AUC(0-t) (plasma, 1000 mg/kg, PO 1000 mg/kg EK-ECP, mean (CV), read-out: AUCTlast) amounted to 1200 ng·h/mL. Further, for the setting “plasma, 1000 mg/kg, PO 1000 mg/kg EK-ECP, mean (CV), read-out: T1/2 (terminal half-life) (converted)”, the half-life is 397 min. Moreover, the bioavailability (plasma) lay within 0.06 to 0.23%. Moreover, the highest level (plasma, PO 100 mg/kg EK-ECP (Group 3), mean (CV)) (Cmax) was 6.67 ng/mL. For the same compound, under setting [5], the AUC(0-inf) came out at 31.4 ng·h/mL, the MRT last came out at 3.4 h and the Vd/F was found to be 1160 L/kg. Besides, the Tmax (plasma, PO 100 mg/kg EK-ECP) fell in the range of 30 to 240 min. Under setting [4], this compound yielded a Cmax of 274 ng/mL. Also, under setting [6], the total exposure AUC(0-inf) came out at 1230 ng·h/mL, the MRT last was 7.67 h and the Vd/F was 768 L/kg. Also, the Tmax (plasma, PO 1000 mg/kg EK-ECP) turned out to be 30 min.
